Measurements: article PMC3816525 (Investigational new drugs, 2011)

How the values were obtained:
[1] = human, in vivo
[2] = human, in vivo; remark: listed apart in the source
[3] = clinical; conditions: human, in vivo, AUC(0–24h)
[4] = clinical; conditions: human, in vivo, AUC(0–24h); remark: listed apart in the source
[5] = cited from earlier work
[6] = system: mantle cell lymphoma; conditions: phase II, single agent; cited from earlier work
[7] = system: glioblastoma multiforme; conditions: two trials in glioblastoma multiforme; cited from earlier work
[8] = system: advanced breast cancer; conditions: heavily pretreated advanced breast cancer; cited from earlier work

For `CCOc1cc2ncc(C#N)c(Nc3ccc(F)c(Cl)c3)c2cc1NC(=O)/C=C/CNC` [N-desmethyl EKB-569], the “AUC(0–24h), Day 6” value [1] was 52.7 ± 61.2 ng·h/mL, the “AUC(0–24h), Day 7” value [1] was 60.8 ± 52.8 ng·h/mL and the “AUC(0–24h), Day 9” value [1] was 75.2 ± 51.0 ng·h/mL.
In the case of `CO[C@H]1C[C@@H]2CC[C@@H](C)[C@@](O)(O2)C(=O)C(=O)N2CCCC[C@H]2C(=O)O[C@H]([C@H](C)C[C@@H]2CC[C@@H](O)[C@H](OC)C2)CC(=O)[C@H](C)/C=C(\C)[C@@H](O)[C@@H](OC)C(=O)[C@H](C)C[C@H](C)/C=C/C=C/C=C/1C` [sirolimus], the “Accumulation: AUC(0–24h) Day 3/Day 1” value [2] is reported as 1.37±0.44, the “Accumulation: AUC(0–24h) Day 15/Day 1” value [2] is reported as 0.99±0.27 and the “Accumulation: AUC(0–24h) Day 17/Day 3” value [2] is reported as 1.78±0.63. The “Change of AUC(0-24h) on Day 15 compared to day 1” value [2] was “similar”, the AUC(0-t) ([3]; Day 3) was 437 ± 116 ng·h/mL and the AUC(0-t) ([3]; po, 30 mg, Day 1) was 348 ± 158 ng·h/mL.
With `CCOc1cc2ncc(C#N)c(Nc3ccc(F)c(Cl)c3)c2cc1NC(=O)/C=C/CN(C)C` [EKB-569] the “Accumulation: AUC(0–24h) Day 6/Day 1” value [1] was 1.78±0.56, the “Accumulation: AUC(0–24h) Day 7/Day 6” value [1] was 1.19±0.28 and the “Accumulation: AUC(0–24h) Day 9/Day 6” value [1] was 1.40±0.33. The “Increase of AUC(0-24h) on Day 7” value [1] was “about 19%”, the AUC(0-t) ([4]; Day 6) was 378 ± 144 ng·h/mL and the AUC(0-t) ([4]; Day 7) was 426 ± 127 ng·h/mL. The AUC(0-t) ([4]; Day 9) was 493 ± 112 ng·h/mL, the “MTD, single agent” value ([5]; advanced solid tumors, DLT grade 3 diarrhea) was 75 mg daily and the “Recommended dose in combination with FOLFIRI” value ([5]; in vivo) was 25 mg daily.
In the case of `CO[C@H]1C[C@@H]2CC[C@@H](C)[C@@](O)(O2)C(=O)C(=O)N2CCCC[C@H]2C(=O)O[C@H]([C@H](C)C[C@@H]2CC[C@@H](OC(=O)C(C)(CO)CO)[C@H](OC)C2)CC(=O)[C@H](C)/C=C(\C)[C@@H](O)[C@@H](OC)C(=O)[C@H](C)C[C@H](C)/C=C/C=C/C=C/1C` [temsirolimus], the “Change of AUC(0-24h) on Day 15 compared to day 1” value [2] is listed as 66%, the “Median TTP” value [6] is listed as 6 months and the Overall response rate [6] is listed as 38–41%. For the same molecule, the TTP [7] was 9–38 weeks, the Partial response rate [8] was 9.2% and the AUC(0-t) ([3]; Day 3) was 68.3 ± 20.4 ng·h/mL. It also gave an AUC(0-t) ([3]; po, 30 mg, Day 1) of 83.9 ± 27.6 ng·h/mL.
